Test results published in ChEMBL document CHEMBL5321222, “N(14)-substituted evodiamine derivatives as dual topoisomerase 1/tubulin-Inhibiting anti-gastrointestinal tumor agents” (Eur J Med Chem, 2023).
Activity calls are given as the source filed them. The rule behind the calls is not given here.

What was measured:
GES1 = test: Antiproliferative activity against human GES1 cells assessed as reduction in cell viability incubated for 72 hrs by MTT assay; assay type: functional, cell-based; details: GES1, 72 h
HGC-27 = test: Antiproliferative activity against human HGC-27 cells assessed as reduction in cell viability incubated for 72 hrs by MTT assay; assay type: functional, cell-based; details: HGC-27, 72 h
[1] = target: T1, DNA topoisomerase 1 (Homo sapiens) (UniProt P11387); test: Inhibition of topoisomerase 1 (unknown origin) at 200 uM using PBR322 DNA as substrate incubated for 30 mins by agarose gel electrophoresis
T1 sequence (whole entry): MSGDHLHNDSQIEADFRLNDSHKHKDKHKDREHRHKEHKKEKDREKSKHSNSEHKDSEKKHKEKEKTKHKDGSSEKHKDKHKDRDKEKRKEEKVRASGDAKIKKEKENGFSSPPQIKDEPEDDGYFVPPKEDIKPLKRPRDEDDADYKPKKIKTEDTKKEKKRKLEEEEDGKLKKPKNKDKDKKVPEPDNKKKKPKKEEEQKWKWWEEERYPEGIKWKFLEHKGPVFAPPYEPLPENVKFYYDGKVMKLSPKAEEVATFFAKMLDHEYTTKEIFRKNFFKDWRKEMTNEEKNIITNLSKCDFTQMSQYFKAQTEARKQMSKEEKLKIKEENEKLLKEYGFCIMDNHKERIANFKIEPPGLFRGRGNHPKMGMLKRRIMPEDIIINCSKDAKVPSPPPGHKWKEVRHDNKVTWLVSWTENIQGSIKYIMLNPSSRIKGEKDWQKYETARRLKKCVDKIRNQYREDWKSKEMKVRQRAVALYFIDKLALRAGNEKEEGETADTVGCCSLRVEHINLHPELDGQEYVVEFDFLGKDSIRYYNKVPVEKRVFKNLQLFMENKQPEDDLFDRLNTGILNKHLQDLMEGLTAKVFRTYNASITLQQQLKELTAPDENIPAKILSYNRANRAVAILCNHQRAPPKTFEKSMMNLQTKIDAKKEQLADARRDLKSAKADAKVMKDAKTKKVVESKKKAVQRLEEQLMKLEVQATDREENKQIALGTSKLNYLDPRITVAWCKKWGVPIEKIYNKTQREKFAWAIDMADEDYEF

MGC-803 [2] = test: Antiproliferative activity against human MGC-803 cells assessed as reduction in cell viability incubated for 72 hrs by MTT assay; assay type: functional, cell-based; details: MGC-803, 72 h
SW480 = test: Antiproliferative activity against human SW480 cells assessed as reduction in cell viability incubated for 72 hrs by MTT assay; assay type: functional, cell-based; details: SW480, 72 h
RKO [3] = test: Antiproliferative activity against human RKO cells assessed as reduction in cell viability incubated for 72 hrs by MTT assay; assay type: functional, cell-based
LoVo = test: Antiproliferative activity against human LoVo cells assessed as reduction in cell viability incubated for 72 hrs by MTT assay; assay type: functional, cell-based
SGC-7901 = test: Antiproliferative activity against human SGC-7901 cells assessed as reduction in cell viability incubated for 72 hrs by MTT assay; assay type: functional, cell-based; details: SGC-7901, 72 h
RKO [4] = test: Induction of cell cycle arrest in human RKO cells assessed as accumulation of cells at G2/M phase at 0.2 uM incubated for 24 hrs by propidium iodide staining based flow cytometry analysis; assay type: functional
RKO [5] = test: Induction of apoptosis in human RKO cells assessed as late apoptotic cells at 0.2 uM incubated for 24 hrs by propidium iodide and Annexin V/FITC staining based flow cytometry assay (reference value: 0.50%); assay type: functional
MGC-803 [6] = test: Induction of apoptosis in human MGC-803 cells assessed as early apoptotic cells at 0.2 uM incubated for 24 hrs by propidium iodide and Annexin V/FITC staining based flow cytometry assay (reference value: 1.85%); assay type: functional
MGC-803 [7] = test: Induction of morphological changes in human MGC-803 cells at 0.2 uM incubated for 24 hrs by Giemsa staining based micrscopic analysis; assay type: functional, cell-based
RKO [8] = test: Induction of morphological changes in human RKO cells at 0.2 uM incubated for 24 hrs by Giemsa staining based micrscopic analysis; assay type: functional, cell-based
MGC-803 [9] = test: Induction of cell cycle arrest in human MGC-803 cells assessed as accumulation of cells at G2/M phase at 0.2 uM incubated for 24 hrs by propidium iodide staining based flow cytometry analysis; assay type: functional
RKO [10] = test: Inhibition of cell migration in human RKO cells assessed as reduction in tumor wound healing incubated for 24 hrs by microscopic analysis; assay type: functional, cell-based; details: dose 10-90 nM
MGC-803 [11] = test: Induction of apoptosis in human MGC-803 cells assessed as late apoptotic cells at 0.2 uM incubated for 24 hrs by propidium iodide and Annexin V/FITC staining based flow cytometry assay (reference value: 4.10%); assay type: functional
MGC-803 [12] = test: Inhibition of cell […] in human MGC-803 cells at 50 nM incubated for 24 hrs by scratch wound healing assay; assay type: functional, cell-based
RKO [13] = test: Induction of cell cycle arrest in human RKO cells assessed as accumulation of cells at S phase at 0.2 uM incubated for 24 hrs by propidium iodide staining based flow cytometry analysis; assay type: functional
RKO [14] = test: Induction of apoptosis in human RKO cells assessed as early apoptotic cells at 0.2 uM incubated for 24 hrs by propidium iodide and Annexin V/FITC staining based flow cytometry assay (reference value: 0.16%); assay type: functional
RKO [15] = test: Antiproliferative activity against human RKO cells assessed as reduction in cell viability at 90 nM incubated for 24 hrs by BrdU staining based fluorescence microscopic analysis; assay type: functional
MGC-803 [16] = test: Antiproliferative activity against human MGC-803 cells assessed as reduction in cell viability at 90 nM incubated for 24 hrs by BrdU staining based fluorescence microscopic analysis; assay type: functional

Row | Structure (SMILES) | IC50 (GES1) [µM] | IC50 (HGC-27) [µM] | inhibition [1] | IC50 (MGC-803 [2]) [µM] | IC50 (SW480) [µM] | IC50 (RKO [3]) [µM] | IC50 (LoVo) [µM] | IC50 (SGC-7901) [µM] | further results
1 | CCN1c2ccccc2C(=O)N2CCc3c([nH]c4ccccc34)C21 (stereo unspecified) | 0.3 | 2.15 | Active | 0.17 | 0.98 | 0.41 | 1.2 | 0.43 | 
2 | C/C=C/C(=O)N1c2ccccc2C(=O)N2CCc3c([nH]c4ccccc34)C21 (stereo unspecified) | 13.6 | 4.37 |  | 10.3 | 6.99 | 10.2 | > 30 | 9.59 | 
3 | CC[C@@]1(O)C(=O)OCc2c1cc1n(c2=O)Cc2cc3c(CN(C)C)c(O)ccc3nc2-1 [TOPOTECAN] | 1.06 | 0.49 | Active | 0.42 | 0.09 | 0.42 | 0.12 | 0.69 | Activity (RKO [4]): 31.92%; Activity (RKO [5]): 19.28%; Activity (MGC-803 [6]): 5.11%; Activity (MGC-803 [7]): inactive; Activity (RKO [8]): inactive; Activity (MGC-803 [9]): 82.29%; inhibition (RKO [10]): inactive; Activity (MGC-803 [11]): 3.67%; inhibition (MGC-803 [12]): inactive; Activity (RKO [13]): 67.69%; Activity (RKO [14]): 14.2%
4 | C=CCN1c2ccccc2C(=O)N2CCc3c([nH]c4ccccc34)C21 (stereo unspecified) |  | 1.05 | Active | 0.06 | 0.38 | 0.38 | 1 | 0.27 | 
5 | COc1cc2c(c(OC)c1OC)-c1ccc(OC)c(=O)cc1[C@@H](NC(C)=O)CC2 [COLCHICINE] |  |  |  | 7.99 |  |  | 0.23 | 17.3 | Activity (RKO [4]): 82.29%; Activity (RKO [5]): 5.1%; Activity (MGC-803 [6]): 6.95%; Activity (RKO [15]): Active; Activity (MGC-803 [7]): Active; Activity (RKO [8]): Active; Activity (MGC-803 [11]): 7.63%; Activity (RKO [14]): 5.3%; Activity (MGC-803 [16]): Active
6 | Cc1ccc(CN2c3ccccc3C(=O)N3CCc4c([nH]c5ccccc45)C32)cc1 (stereo unspecified) | 9.74 | > 30 |  | 7.06 | > 30 | 12.5 | > 30 | 6.11 | 
7 | O=C1c2ccccc2N(CCC2OCCO2)C2c3[nH]c4ccccc4c3CCN12 (stereo unspecified) | > 30 | > 30 |  | 15.7 | > 30 | > 30 | > 30 | 5.63 | 
8 | COc1ccc(CN2c3ccccc3C(=O)N3CCc4c([nH]c5ccccc45)C32)cc1 (stereo unspecified) | 8.53 | 17.8 |  | 4.49 | > 30 | 5.51 | 19.7 | 5.96 | 
9 | CCCCCN1c2ccccc2C(=O)N2CCc3c([nH]c4ccccc34)C21 (stereo unspecified) | 2.82 | 7.74 |  | 0.75 | 4.41 | 1.87 | > 30 | 1.22 | 
10 | CC(C)CN1c2ccccc2C(=O)N2CCc3c([nH]c4ccccc34)C21 (stereo unspecified) | 1.08 | 1.95 | Active | 0.16 | 2.2 | 0.88 | 0.5 | 0.35 | 
11 | C[Si](C)(C)CN1c2ccccc2C(=O)N2CCc3c([nH]c4ccccc34)C21 (stereo unspecified) | 4.24 | > 3 |  | 1.78 | 3.28 | 2.21 | 7.06 | 2.47 | 
